Paper PMC9423655, “Huntington’s disease phenotypes are improved via mTORC1 modulation by small molecule therapy” (PLoS ONE, 2022)

What was measured:
[1] = tested on: mTORC1 pathway in striatum; assay: Chronic 6-week treatment: striatum immunoblots; assay type: in vivo, N171-82Q mice
From the text: Animals were sacrificed by live decapitation one hour after the last oral dosing. Whole hearts were excised, blot-dried and weighed on an analytical balance. The heart was bisected transversely and the apical halves was preserved for cardiomyocyte and fibrosis staining. Left tibias were isolated and measured with an electronic caliper. The brain left hemisphere was preserved for MSN size measurement. The brain right hemisphere was microdissected and the medial pre-frontal cortex, striatum, cortex, hippocampus and cerebellum were collected.
(§1) Specific regions of the brain and heart were homogenized using a Next Advance Bullet Blender Storm in Lysis Buffer (Cell lysis buffer: 1% Triton X-100, 50 mM HEPES pH 7.4, 100 mM sodium chloride, 2 mM EDTA, 10 mM Beta-glycerophosphate, 10 mM Sodium pyrophosphate, and 1 protease inhibitor) at 4°C. Lysates were cleared by centrifugation at 13,200 rpm at 4°C for 10 minutes. Equal amounts of total protein from each sample were denatured and, resolved by SDS-PAGE. Membranes were imaged using the LI-COR imaging system. Proteins levels are normalized to tubulin, actin or GAPDH levels and further normalized to vehicle treated mice for each tissue.
Fig 3 Activation of the mTORC1 pathway in the striatum following daily oral dosing of NV-5297. (A) Representative immunoblots of the striatum for normalized phosphorylated S6 [^S240/244pS6], S6, phosphorylated Akt [^S437pAkt], Akt, phosphorylated mTOR [^S2448pmTOR], mTOR, DARPP-32, phosphorylated 4E-BP1 [^Thr37/46p4E-BP1], 4E-BP1 and Actin from homogenized striatum isolated from N171-82Q males after 6 weeks of daily oral dosing of NV-5297 (160 mg/kg) or vehicle [Veh]. (B) Quantification of the immunoblots from homogenized striatum isolated 1 hour after the final oral dosing with NV-5297 (160 mg/kg; n = 14) normalized to loading control levels and further normalized to vehicle treated mice (n = 15). A significant Spearman correlation is present between pS6/S6 and DARPP32 levels. Data are presented as mean ± SEM. *P ≤ 0.05, ***P ≤ 0.001, ****P ≤ 0.0001 (one-tailed unpaired Student’s t-test [pmTOR/mTOR, DARPP-32], with a Welch’s correction [pS6/S6, p4E-BP1/4E-BP1], Mann-Whitney test [pAkt/Akt].

[2] = tested on: mTORC1 pathway (pS6); assay: Isoprenaline cardiac stress: pS6 immunoblot of striatum and heart; assay type: in vivo; conditions: N171-82Q mice under isoprenaline cardiac stress, 1 hour after oral dosing 160 mg/kg
Protocol: as §1
Fig 8 mTORC1 pathway activation following NV-5297 dosing and cardiac stress in the striatum but not heart. Representative immunoblot (left panels) of phosphorylated S6 (^S240/244pS6) and quantification of normalized level (right panels) for homogenized heart (A) and striatum (B) isolated 1 hour after oral dosing with NV-5297 (160 mg/kg) with a saline (n = 10) or isoprenaline (n = 6) implant or treated with vehicle and an isoprenaline implant (n = 6) normalized to loading control levels and further normalized to vehicle treated mice with a saline implant (n = 9). Data are presented as mean ± SEM. *P ≤ 0.05, **P ≤ 0.01, ***P ≤ 0.001 (Mixed-effects model with Sidak’s multiple comparisons test).

[3] = tested on: mTORC1; assay: mTORC1 activation (pS6K1 immunoblot) in leucine-starved HEK293T cells; assay type: cell-based; conditions: HEK293T cells starved of leucine 50 minutes, treatment 10 minutes
Protocol: All cell lines were cultured in DMEM (Corning, #MT10013CV) supplemented with 10% heat-inactivated FBS (Gibco, #16140–071). All cell lines were maintained at 37°C and 5% CO2. For amino acid starvation, cells were rinsed once with and incubated Amino acid-free RPMI (US Biologicals, #R8999-04A) supplemented with 10% dialyzed FBS (Gibco, #26400044) for 50 min followed by treatment with NV-5297, leucine, or vehicle for 10 minutes. For leucine starvation, cells were rinsed once with and incubated in leucine-free DMEM (AthenaES, #0420) supplemented with 10% dialyzed FBS (Gibco, #26400044) for 50 minuted followed by treatment with NV-5297, leucine, or vehicle for 10 minutes.
(A) Activation of the mTORC1 pathway by NV-5297. […] (B) NV-5297 disrupts Sestrin2/GATOR2 in the in vitro Sesn2/WDR24 protein-protein interaction assay in a dose-dependent manner. […] Representative immunoblots of ^T389pS6K1 and quantification of the normalized level of ^T389pS6K1 from 8 independent experiments (F) show TORC1 activity in unedited HEK-293T cells, HEK-293T cells deficient for Sestrin 1 (Sesn1), 2 (Sesn2) and 3 (Sesn3) (D) or HEK-293T cells deficient for the GATOR1 component Nprl3 (E) after 50 minutes leucine starvation followed by the addition of vehicle, NV-5297 or leucine for 10 minutes. […]

[4] = N171-82Q mice, 160 mg/kg daily 6 weeks
[5] = N171-82Q mice, 160 mg/kg daily 6 weeks, 1 hour after final dose

CC(C)(C[C@H](N)C(=O)O)C(F)(F)F [NV-5297, (S)-2-amino-5,5,5-trifluoro-4,4-dimethylpentanoic acid]
striatal p4E-BP1/4E-BP1 [1, 4]: unchanged
striatal pAkt/Akt [1, 4]: unchanged
striatal pmTOR/mTOR [1, 4]: unchanged
striatal DARPP-32 [1, 5]: significantly elevated
striatal pS6 [1, 5]: significantly elevated
duration of mTORC1 pathway activation ([1]; NV-5297 daily treatment, response to reviewers): ~ 3 hours per day
pS6/S6 ratio in heart [2]: strong trend toward increased ratios
pS6/S6 ratio in striatum [2]: increased pS6/S6 ratio
mTORC1 activation measured by phosphorylated S6K1 (pS6K1 / p70S6K1) [3]: activates mTORC1 in leucine-starved HEK293T cells in a dose-dependent manner
